Test results: ChEMBL document CHEMBL4823249, “Discovery of a Pyrimidinedione Derivative as a Potent and Orally Bioavailable Axl Inhibitor” (J Med Chem, 2021)
Activity calls are given as the source filed them. No cut-off for these calls is given here.

Legend:
[1] = biological target: PI3-kinase p110-delta/p85-alpha (Homo sapiens, UniProt O00329); assay: Inhibition of recombinant human full length PI3K p110delta/p85a using phosphatidylinositol-4, 5-bisphosphate as substrate incubated for 40 mins in presence of [gamma33P]ATP by scintillation counting based radiometry assay; type: protein-complex assay
Chain of PI3-kinase p110-delta/p85-alpha (P27986 whole entry): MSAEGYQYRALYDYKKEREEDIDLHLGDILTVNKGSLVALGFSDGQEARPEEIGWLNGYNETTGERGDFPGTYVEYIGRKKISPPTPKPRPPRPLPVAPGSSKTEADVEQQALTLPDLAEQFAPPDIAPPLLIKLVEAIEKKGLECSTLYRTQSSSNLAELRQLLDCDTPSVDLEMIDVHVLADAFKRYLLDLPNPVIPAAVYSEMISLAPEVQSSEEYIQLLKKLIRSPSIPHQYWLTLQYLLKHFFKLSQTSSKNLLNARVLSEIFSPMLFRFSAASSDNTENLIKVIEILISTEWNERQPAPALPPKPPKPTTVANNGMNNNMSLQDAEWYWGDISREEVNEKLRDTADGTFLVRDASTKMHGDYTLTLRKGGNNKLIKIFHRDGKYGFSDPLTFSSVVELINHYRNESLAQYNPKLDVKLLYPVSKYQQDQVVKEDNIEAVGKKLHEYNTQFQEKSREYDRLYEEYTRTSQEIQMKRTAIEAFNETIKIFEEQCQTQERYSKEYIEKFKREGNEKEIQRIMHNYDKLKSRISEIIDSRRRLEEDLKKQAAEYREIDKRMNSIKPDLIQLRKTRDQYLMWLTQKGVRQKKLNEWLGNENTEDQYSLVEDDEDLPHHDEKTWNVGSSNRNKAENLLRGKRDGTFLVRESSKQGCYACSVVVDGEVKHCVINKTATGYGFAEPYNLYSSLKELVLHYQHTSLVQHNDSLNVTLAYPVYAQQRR
Chain of PI3-kinase p110-delta/p85-alpha (O00329 whole entry): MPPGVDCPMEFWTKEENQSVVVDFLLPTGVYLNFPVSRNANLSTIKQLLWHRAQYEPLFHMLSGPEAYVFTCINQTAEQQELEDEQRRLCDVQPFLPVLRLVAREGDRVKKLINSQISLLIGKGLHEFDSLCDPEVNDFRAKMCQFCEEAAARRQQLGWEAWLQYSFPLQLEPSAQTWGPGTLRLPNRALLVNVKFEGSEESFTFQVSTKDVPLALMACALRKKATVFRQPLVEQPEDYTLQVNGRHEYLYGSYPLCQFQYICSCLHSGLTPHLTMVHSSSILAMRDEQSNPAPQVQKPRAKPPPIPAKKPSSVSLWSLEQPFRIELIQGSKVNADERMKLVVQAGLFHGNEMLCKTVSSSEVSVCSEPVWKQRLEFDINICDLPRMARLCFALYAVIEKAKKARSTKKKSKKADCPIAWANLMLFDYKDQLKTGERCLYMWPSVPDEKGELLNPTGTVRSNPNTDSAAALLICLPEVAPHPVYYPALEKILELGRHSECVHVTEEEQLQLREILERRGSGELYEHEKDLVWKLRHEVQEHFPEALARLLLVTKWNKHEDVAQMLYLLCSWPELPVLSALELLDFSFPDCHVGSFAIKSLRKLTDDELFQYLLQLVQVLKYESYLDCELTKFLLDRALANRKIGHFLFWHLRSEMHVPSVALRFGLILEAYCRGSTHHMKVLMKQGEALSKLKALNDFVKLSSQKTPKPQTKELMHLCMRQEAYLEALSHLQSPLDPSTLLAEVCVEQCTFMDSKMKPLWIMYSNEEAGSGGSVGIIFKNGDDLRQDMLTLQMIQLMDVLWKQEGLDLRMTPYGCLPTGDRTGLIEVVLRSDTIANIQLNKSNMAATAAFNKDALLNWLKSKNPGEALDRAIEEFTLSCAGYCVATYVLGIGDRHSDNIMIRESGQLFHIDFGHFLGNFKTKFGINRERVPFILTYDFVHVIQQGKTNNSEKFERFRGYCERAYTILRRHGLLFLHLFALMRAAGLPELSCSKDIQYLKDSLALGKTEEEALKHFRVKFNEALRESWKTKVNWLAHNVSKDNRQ

[2] = biological target: T1, Hepatocyte growth factor receptor (Homo sapiens, UniProt P08581); assay: Inhibition of MET signaling in human EBC1 cells assessed as reduction in phosphorylation of MET after 2 hrs by Western blotting analysis; type: cell-based; conditions: EBC-1, dose 10-100 nM
T1 sequence (P08581 whole entry): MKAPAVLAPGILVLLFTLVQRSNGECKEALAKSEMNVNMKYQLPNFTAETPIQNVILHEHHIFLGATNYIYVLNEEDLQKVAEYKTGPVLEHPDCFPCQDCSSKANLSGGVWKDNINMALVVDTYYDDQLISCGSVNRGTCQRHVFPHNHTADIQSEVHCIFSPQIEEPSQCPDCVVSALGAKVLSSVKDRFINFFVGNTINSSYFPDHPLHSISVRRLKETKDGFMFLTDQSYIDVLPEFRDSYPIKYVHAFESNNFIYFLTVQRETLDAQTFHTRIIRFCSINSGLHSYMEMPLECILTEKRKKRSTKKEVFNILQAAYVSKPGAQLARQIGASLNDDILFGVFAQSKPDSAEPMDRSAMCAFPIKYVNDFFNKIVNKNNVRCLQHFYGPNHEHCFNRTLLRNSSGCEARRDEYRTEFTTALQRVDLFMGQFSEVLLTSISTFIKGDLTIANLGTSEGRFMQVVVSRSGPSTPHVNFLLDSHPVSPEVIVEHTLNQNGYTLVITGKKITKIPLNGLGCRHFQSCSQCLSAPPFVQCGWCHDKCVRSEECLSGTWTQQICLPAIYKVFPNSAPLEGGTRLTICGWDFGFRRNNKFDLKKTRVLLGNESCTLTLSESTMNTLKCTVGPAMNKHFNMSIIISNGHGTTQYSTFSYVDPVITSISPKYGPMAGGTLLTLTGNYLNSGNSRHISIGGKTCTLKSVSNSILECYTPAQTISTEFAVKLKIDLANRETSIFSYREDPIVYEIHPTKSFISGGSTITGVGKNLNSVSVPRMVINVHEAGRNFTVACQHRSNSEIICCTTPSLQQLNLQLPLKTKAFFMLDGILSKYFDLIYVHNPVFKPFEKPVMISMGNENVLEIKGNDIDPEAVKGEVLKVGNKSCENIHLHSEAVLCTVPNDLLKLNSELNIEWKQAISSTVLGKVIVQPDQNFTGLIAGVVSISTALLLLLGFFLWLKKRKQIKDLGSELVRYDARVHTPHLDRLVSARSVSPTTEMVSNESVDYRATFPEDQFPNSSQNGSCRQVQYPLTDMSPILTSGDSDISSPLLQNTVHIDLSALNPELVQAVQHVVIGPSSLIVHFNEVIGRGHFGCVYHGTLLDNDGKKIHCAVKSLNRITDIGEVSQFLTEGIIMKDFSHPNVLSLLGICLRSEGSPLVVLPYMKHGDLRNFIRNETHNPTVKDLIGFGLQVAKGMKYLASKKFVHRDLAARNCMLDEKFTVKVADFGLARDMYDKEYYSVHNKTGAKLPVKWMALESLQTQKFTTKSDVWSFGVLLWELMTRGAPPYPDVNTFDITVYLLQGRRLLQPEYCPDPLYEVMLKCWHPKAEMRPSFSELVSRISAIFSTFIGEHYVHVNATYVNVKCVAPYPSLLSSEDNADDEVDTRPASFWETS

U-87 MG = assay: Antitumor activity against human U-87MG cells xenografted in BALB/c nude mouse assessed as tumor growth inhibition at 25 mg/kg, po administered once daily for 14 days by caliper method; type: functional, U-87MG ATCC; conditions: 336 h, time 14 day, read-out: TGI
[3] = biological target: T2, Tyrosine-protein kinase receptor UFO (Mus musculus) (UniProt Q00993); assay: Inhibition of AXL in mouse BaF3/TEL-AXL cells assessed as reduction in Gas6-induced phosphorylation of AXL at 0.5 to 50 nM preincubated for 2 hrs followed by Gas6 stimulation for 15 mins by Western blotting analysis; type: cell-based; conditions: dose 0.5-50 nM
T2 sequence (whole entry): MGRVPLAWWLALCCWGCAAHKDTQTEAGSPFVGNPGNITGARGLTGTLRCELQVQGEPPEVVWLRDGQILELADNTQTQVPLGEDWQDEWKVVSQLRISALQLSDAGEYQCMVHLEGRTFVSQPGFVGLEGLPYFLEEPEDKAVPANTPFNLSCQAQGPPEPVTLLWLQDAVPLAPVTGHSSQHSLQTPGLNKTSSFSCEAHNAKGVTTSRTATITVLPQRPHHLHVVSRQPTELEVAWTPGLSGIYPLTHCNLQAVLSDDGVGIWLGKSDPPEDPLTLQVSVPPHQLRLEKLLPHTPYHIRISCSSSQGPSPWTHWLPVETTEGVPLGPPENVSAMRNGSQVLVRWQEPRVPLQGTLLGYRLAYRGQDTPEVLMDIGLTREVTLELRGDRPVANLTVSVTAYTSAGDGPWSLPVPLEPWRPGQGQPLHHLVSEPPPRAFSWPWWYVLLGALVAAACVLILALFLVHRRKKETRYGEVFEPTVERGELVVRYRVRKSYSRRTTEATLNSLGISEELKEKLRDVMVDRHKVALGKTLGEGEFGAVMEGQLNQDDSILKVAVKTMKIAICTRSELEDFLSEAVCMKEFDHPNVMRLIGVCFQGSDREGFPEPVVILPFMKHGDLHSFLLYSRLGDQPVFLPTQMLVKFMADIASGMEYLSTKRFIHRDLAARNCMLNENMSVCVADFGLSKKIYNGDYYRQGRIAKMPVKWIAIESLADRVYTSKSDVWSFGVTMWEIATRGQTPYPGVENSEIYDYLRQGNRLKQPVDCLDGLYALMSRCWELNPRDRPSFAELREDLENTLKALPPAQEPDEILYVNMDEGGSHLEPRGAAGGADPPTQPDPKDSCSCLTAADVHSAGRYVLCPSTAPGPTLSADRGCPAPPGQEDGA

[4] = biological target: T1, Hepatocyte growth factor receptor; assay: Inhibition of MET signaling in human MKN45 cells assessed as reduction in phosphorylation of ERK after 2 hrs by Western blotting analysis; type: cell-based; conditions: MKN-45, dose 10-100 nM
NCI-H1299 = assay: Antiproliferative activity against human NCI-H1299 cells at 5 to 125 uM incubated for 72 hrs by SRB or CCK8 assay; type: functional, cell-based; conditions: dose 5-125 µM
[5] = AUC(0 to infinity) in ICR mouse at 1 mg/kg, iv measured upto 24 hrs by LC-MS analysis; type: ADME, organism-based; parameters: route intravenous, dose 1 mg/kg, time <=24; conditions: in vivo
[6] = AUC(0 to infinity) in Sprague-Dawley rat at 3 mg/kg, po measured upto 24 hrs by LC-MS analysis; type: ADME, organism-based; parameters: route oral, dose 3 mg/kg, time <=24; conditions: in vivo
BT-549 = assay: Antiproliferative activity against human BT-549 cells incubated for 72 hrs by SRB or CCK8 assay; type: functional, cell-based; conditions: BT-549, 72 h
[7] = biological target: Mast/stem cell growth factor receptor Kit (Homo sapiens, UniProt P10721); assay: Inhibition of recombinant human C-Kit using poly(Glu, Tyr) 4:1 as substrate incubated for 40 mins in presence of [gamma-33ATP] by scintillation counting based radiometry assay
[8] = biological target: Epidermal growth factor receptor (Homo sapiens, UniProt P00533); assay: Inhibition of recombinant human EGFR (696 to end residues) using poly(Glu, Tyr) 4:1 as substrate incubated for 40 mins in presence of [gamma-33ATP] by scintillation counting based radiometry assay
Chain of Epidermal growth factor receptor (P00533 whole entry): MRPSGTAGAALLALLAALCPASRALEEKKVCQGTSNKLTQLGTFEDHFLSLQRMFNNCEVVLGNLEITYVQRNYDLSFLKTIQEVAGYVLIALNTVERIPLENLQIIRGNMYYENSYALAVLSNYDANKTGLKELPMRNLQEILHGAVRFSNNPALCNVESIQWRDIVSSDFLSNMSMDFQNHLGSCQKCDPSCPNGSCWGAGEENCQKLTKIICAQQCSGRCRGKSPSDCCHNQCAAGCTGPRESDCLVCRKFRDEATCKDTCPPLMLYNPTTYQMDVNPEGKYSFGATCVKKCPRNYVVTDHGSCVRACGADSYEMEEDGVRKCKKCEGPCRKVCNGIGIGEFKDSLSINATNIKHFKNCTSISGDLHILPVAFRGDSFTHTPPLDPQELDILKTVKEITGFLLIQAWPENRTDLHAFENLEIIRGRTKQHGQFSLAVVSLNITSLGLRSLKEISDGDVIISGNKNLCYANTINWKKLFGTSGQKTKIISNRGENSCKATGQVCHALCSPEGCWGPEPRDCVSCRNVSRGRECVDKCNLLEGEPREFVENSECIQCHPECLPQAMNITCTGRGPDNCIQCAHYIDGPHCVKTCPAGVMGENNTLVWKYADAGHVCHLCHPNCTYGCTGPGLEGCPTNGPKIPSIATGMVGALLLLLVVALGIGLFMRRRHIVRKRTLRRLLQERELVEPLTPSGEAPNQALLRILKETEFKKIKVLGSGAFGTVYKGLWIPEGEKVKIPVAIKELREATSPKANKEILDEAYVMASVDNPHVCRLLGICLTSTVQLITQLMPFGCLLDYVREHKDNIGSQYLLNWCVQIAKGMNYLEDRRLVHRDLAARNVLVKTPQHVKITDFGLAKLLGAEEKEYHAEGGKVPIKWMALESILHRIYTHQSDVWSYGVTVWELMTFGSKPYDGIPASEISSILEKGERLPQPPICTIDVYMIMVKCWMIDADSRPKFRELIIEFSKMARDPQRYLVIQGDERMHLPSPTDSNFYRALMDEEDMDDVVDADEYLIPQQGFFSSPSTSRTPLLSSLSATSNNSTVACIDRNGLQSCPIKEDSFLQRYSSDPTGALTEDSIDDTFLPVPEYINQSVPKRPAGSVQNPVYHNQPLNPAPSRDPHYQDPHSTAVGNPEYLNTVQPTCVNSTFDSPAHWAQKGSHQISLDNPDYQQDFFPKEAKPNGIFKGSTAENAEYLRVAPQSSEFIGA

[9] = biological target: ALK tyrosine kinase receptor (Homo sapiens, UniProt Q9UM73); assay: Inhibition of human ALK (1058 to end residues) using KKKSPGEYVNIEFG as substrate incubated for 40 mins in presence of [gamma-33ATP] by scintillation counting based radiometry assay
[10] = biological target: Dual specificity mitogen-activated protein kinase kinase 1 (Homo sapiens, UniProt Q02750); assay: Inhibition of recombinant human MEK1 using inactive MAPK2 as substrate incubated for 40 mins in presence of [gamma-33ATP] by scintillation counting based radiometry assay
Chain of Dual specificity mitogen-activated protein kinase kinase 1 (Q02750 whole entry): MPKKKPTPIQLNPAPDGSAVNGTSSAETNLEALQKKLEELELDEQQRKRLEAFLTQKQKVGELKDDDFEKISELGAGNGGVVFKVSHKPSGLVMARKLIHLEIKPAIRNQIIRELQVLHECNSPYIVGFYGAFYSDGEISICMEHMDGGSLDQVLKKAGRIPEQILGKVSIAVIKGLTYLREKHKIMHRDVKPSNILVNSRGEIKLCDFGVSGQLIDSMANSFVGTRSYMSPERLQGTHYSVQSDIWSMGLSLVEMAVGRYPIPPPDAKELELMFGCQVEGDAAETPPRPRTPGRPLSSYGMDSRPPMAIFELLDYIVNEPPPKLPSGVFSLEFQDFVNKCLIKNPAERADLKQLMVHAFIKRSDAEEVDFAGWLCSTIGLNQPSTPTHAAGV

[11] = Cmax in ICR mouse at 3 mg/kg, po measured upto 24 hrs by LC-MS analysis; type: ADME, organism-based; parameters: route oral, dose 3 mg/kg, time <=24; conditions: in vivo

## CC(C)n1cc(C(=O)Nc2ccc(Oc3ccnc(NC(=O)C4CC4)c3)c(F)c2)c(=O)n(-c2ccc(F)cc2)c1=O
[1]
  IC50: > 1 µM
[2]
  inhibition: Dose-Dependent Effect
U-87 MG
  inhibition in vivo at 25 mg/kg: 89.8%
[3]
  inhibition: Active
[4]
  inhibition: Dose-Dependent Effect
NCI-H1299
  Activity: inactive
[5]
  AUC(0-inf): 7360 ng·h/mL
[6]
  AUC(0-inf): 43900 ng·h/mL
BT-549
  IC50: > 10 µM
[7]
  IC50: > 1 µM
[8]
  IC50: > 1 µM
[9]
  IC50: > 1 µM
[10]
  IC50: > 1 µM
[11]
  Cmax: 2990 ng/mL
